According to US8513423B2 (Janssen Pharmaceutica, NV, priority 2010, dated 2013):
Read-outs that look alike come from different tables or passages of the source.

Key:
[1] = target: T1, mutant MGL (Homo sapiens, UniProt Q99685, L169S/L176S); test: MGL ThermoFluor assay - mutant; type: binding
T1 construct: purified mutant MGL (mut-MGLL 11-313 L179S L186S)
T1 sequence (Q99685 1-303 L169S/L176S): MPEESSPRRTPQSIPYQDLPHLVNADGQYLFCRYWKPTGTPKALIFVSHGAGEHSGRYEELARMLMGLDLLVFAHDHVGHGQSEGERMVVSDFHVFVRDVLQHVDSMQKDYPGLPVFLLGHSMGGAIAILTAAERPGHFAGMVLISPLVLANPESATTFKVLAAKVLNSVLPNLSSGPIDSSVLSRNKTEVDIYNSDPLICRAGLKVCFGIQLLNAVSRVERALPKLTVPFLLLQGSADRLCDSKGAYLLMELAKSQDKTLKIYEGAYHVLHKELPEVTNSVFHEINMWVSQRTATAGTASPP
In short: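 Thermal shift binding with 0.07 mg/ml L169S/L176S MGL, 100 μM 1,8-ANS, 200 mM NaCl, 0.001% Tween-20, 50 mM PIPES pH 7.0. Heated 40–90 °C at 1 °C/min, fluorescence (em 500 nm) tracked to give Tm; Kd fitted from 11-point concentration–Tm response, qKd when stocks quantified by qNMR.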

[2] = tested on: CFA-induced paw radiant heat hypersensitivity; test: CFA-induced paw radiant heat hypersensitivity; type: in vivo; conditions: rat; 30 mg/kg, p.o.; last time point 300 min; group mean values, maximum % reversal at any time point
Protocol: Each rat was placed in a test chamber on a warm glass surface and allowed to acclimate for approximately 10 min. A radiant thermal stimulus (beam of light) was focused through the glass onto the plantar surface of each hind paw in turn. The thermal stimulus was automatically shut off by a photoelectric relay when the paw was moved or when the cut-off time was reached (20 sec for radiant heat at ˜5 amps). An initial (baseline) response latency to the thermal stimulus was recorded for each animal prior to the injection of complete Freund's adjuvant (CFA). Twenty-four hours following intraplantar CFA injection, the response latency of the animal to the thermal stimulus was re-evaluated and compared to the animal's baseline response time. […] Post-compound treatment withdrawal latency was assessed at fixed time intervals, typically 30, 60, 120, 180, and 300 min.
The percent reversal (% R) of hypersensitivity was calculated in one of two different ways: 1) using group mean values or 2) using individual animal values. […]
Method 1. For all compounds, the % R of hypersensitivity was calculated using the mean value for groups of animals at each time point according to the following formula: % reversal=[(group treatment response−group CFA response)/(group baseline response−group CFA response)]×100 Results are given for the maximum % reversal observed for each compound at any time point tested. […]

[3] = 0.07 mg/ml mutant MGL, pH=7.0, read-out: MGL mutant ThermoFluor Kd
[4] = compound concentration measured by qNMR, read-out: MGL mutant ThermoFluor qKd (using qNMR conc.)

Row | SMILES | Kd [1, 3] [nM] | Kd [1, 4] [nM] | Method 1: peak % reversal [2] [%]
1 | Cc1c(C(=O)N2CC(C3CCN(C(=O)c4nccs4)CC3)C2)sc2cc(C(F)(F)F)ccc12 [Cpd 20, 4-(1-{[3-Methyl-6-(trifluoromethyl)-1-benzothiophen-2-yl]carbonyl}azetidin-3-yl)-1-(1,3-thiazol-2-ylcarbonyl)piperidine] | 1 | 1.3 | −6.7
2 | O=C(c1nccs1)N1CCC(C2CN(C(=O)c3sc4cc(C(F)(F)F)ccc4c3Cl)C2)CC1 [Cpd 29, 4-(1-{[3-Chloro-6-(trifluoromethyl)-1-benzothiophen-2-yl]carbonyl}azetidin-3-yl)-1-(1,3-thiazol-2-ylcarbonyl)piperidine] | 0.3 | 1.2 | 17.9
